Experimental findings from US10807970B2 (priority 2016, dated 2020) are described below.

Like-named read-outs stand apart in the source and are kept apart here.

This experiment addresses human σ1 receptor (Homo sapiens, UniProt Q99720). The experiment is described as follows: Human σ1 receptor radioligand assay ([3H](+)-pentazocine, transfected HEK-293 membranes). Further details: μ and σ1 dual binding: key to the marks not given beside the values. Format: binding. As to conditions: one class symbol for both Ki-σ1 (human σ1 receptor, A1) and Ki-μ (human μ-opioid receptor, A2). The procedure: Human σ1 Receptor Radioligand Assay
To investigate binding properties of test compounds to human σ1 receptor, transfected HEK-293 membranes and [^3H](+)-pentazocine (Perkin Elmer, NET-1056), as the radioligand, were used. The assay was carried out with 7 μg of membrane suspension, 5 nM of [^3H](+)-pentazocine in either absence or presence of either buffer or 10 μM Haloperidol for total and non-specific binding, respectively. Binding buffer contained Tris-HCl 50 mM at pH 8. Plates were incubated at 37° C. for 120 minutes. After the incubation period, the reaction mix was then transferred to MultiScreen HTS, FC plates (Millipore), filtered and plates were washed 3 times with ice-cold 10 mM Tris-HCL (pH7.4). Filters were dried and counted at approximately 40% efficiency in a MicroBeta scintillation counter (Perkin-Elmer) using EcoScint liquid scintillation cocktail

Where [1] appears, read: read-out: μ and σ1 dual binding.

human σ1 receptor, sequence (Q99720 whole entry): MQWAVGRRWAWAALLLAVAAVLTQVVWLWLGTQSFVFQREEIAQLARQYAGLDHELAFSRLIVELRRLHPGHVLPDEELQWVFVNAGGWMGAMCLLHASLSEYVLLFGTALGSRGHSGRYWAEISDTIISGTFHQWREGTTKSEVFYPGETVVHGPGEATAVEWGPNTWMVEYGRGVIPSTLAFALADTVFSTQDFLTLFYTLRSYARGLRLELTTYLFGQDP

The compound `CC(C)CCN1CCN(C2(C(=O)c3ccccn3)CCOC(C)(C)C2)CC1` (stereo not shown) [Example 64, (4-(4-isopentylpiperazin-1-yl)-2,2-dimethyltetrahydro-2H-pyran-4-yl)(pyridin-2-yl)methanone] yielded a Ki (μ and σ1 dual binding) of under 0.5 µM. With `CC(C)OCCN1CCN([C@@]2(C(=O)c3ccccn3)CCOC2)CC1` [Example 243, (S)-(3-(4-(2-isopropoxyethyl)piperazin-1-yl)tetrahydrofuran-3-yl)(pyridin-2-yl)methanone], the “μ and σ1 dual binding” value is given as “++”. Under “μ and σ1 dual binding”, `CC(C)OCCN1CCCN(C2(C(=O)c3ccccn3)CCOC(C)(C)C2)CC1` (stereo not shown) [Example 88, (4-(4-(2-isopropoxyethyl)-1,4-diazepan-1-yl)-2,2-dimethyltetrahydro-2H-pyran-4-yl)(pyridin-2-yl)methanone] displayed a Ki of under 0.5 µM. For `CC(C)(O)COCCN1CCN(C2(C(=O)c3ccccn3)CCOC(C)(C)C2)CC1` (stereo not shown) [Example 70, (4-(4-(2-(2-hydroxy-2-methylpropoxy)ethyl)piperazin-1-yl)-2,2-dimethyltetrahydro-2H-pyran-4-yl)(pyridin-2-yl)methanone], the “μ and σ1 dual binding” value is recorded as “++”.

Regarding `CC[C@]1(N2CCN(Cc3ccc(C#N)cc3)CC2)CCO[C@@H](C)C1` (stereo in doubt) [Example 187, 4-((4-(4-ethyl-2-methyltetrahydro-2H-pyran-4-yl)piperazin-1-yl)methyl)benzonitrile], the Ki under setting [1] was over 0.5 µM. On to `CC(C)(O)CCN1CCN(C2(C(=O)c3ccccn3)CCOC(C)(C)C2)CC1` (stereo not shown) [Example 90, (4-(4-(3-hydroxy-3-methylbutyl)piperazin-1-yl)-2,2-dimethyltetrahydro-2H-pyran-4-yl)(pyridin-2-yl)methanone], for which the “μ and σ1 dual binding” value was “++”. Same read-out and setting: under `CC[C@]1(N2CCN(Cc3ccccc3)CC2)CCO[C@@H](C)C1` [Example 163, 1-benzyl-4-((2S,4S)-4-ethyl-2-methyltetrahydro-2H-pyran-4-yl)piperazine] stands “++”; under `OC(c1ccccn1)C1(C2CCN(Cc3ccccc3)CC2)CCOCC1` (stereo not shown) [Example 130, (4-(1-benzylpiperidin-4-yl)tetrahydro-2H-pyran-4-yl)(pyridin-2-yl)methanol], “++”. `CC1(C)CC(C(=O)c2ccccn2)(N2CCN(CCOCC(F)(F)F)CC2)CCO1` (stereo not shown) [Example 69, (2,2-dimethyl-4-(4-(2-(2,2,2-trifluoroethoxy)ethyl)piperazin-1-yl)tetrahydro-2H-pyran-4-yl)(pyridin-2-yl)methanone]: the “μ and σ1 dual binding” value is recorded as “++”. The same measure, in the same setting: under `CC1(C)CC(C(=O)c2ccccn2)(N2CCN(CCc3ncccc3F)CC2)CCO1` (stereo not shown) [Example 55, (4-(4-(2-(3-fluoropyridin-2-yl)ethyl)piperazin-1-yl)-2,2-dimethyltetrahydro-2H-pyran-4-yl)(pyridin-2-yl)methanone] stands “++”; under `CCC1(N2CCN(Cc3ccccc3)CC2)CCOCC1` [Example 31, 1-benzyl-4-(4-ethyltetrahydro-2H-pyran-4yl)piperazine], “++”. For the setting “μ and σ1 dual binding”, `CC1(C)CC(C(=O)c2ccccn2)(N2CCN(CCc3ccncc3F)CC2)CCO1` (stereo not shown) [Example 85, (4-(4-(2-(3-fluoropyridin-4-yl)ethyl)piperazin-1-yl)-2,2-dimethyltetrahydro-2H-pyran-4-yl)(pyridin-2-yl)methanone] returned a Ki of under 0.5 µM. Turning to `C[C@H]1C[C@@](C(=O)c2ccccn2)(N2CCN(Cc3ccccc3)CC2)CCO1` [Example 155, ((2S,4S)-4-(4-benzylpiperazin-1-yl)-2-methyltetrahydro-2H-pyran-4-yl)(pyridin-2-yl)methanone], the “μ and σ1 dual binding” value was “++”. `CC[C@@]1(N2CCN(Cc3ccc(C#N)cc3)CC2)CCO[C@@H](C)C1` [Example 250, 4-((4-((2S,4R)-4-ethyl-2-methyltetrahydro-2H-pyran-4-yl)piperazin-1-yl)methyl)benzonitrile]: under setting [1], the Ki was over 0.5 µM. Same read-out and setting: under `CC(C)OCCN(C)[C@@H]1CCN([C@]2(C(=O)c3ccccn3)CCOC(C)(C)C2)C1` [Example 144, ((R)-4-((R)-3-((2-isopropoxyethyl)(methyl)amino)pyrrolidin-1-yl)-2,2-dimethyltetrahydro-2H-pyran-4-yl)(pyridin-2-yl)methanone] stands under 0.5 µM.

As to `CC(C)CN1CCN(C2(C(=O)c3ccccn3)CCOC3(CCCC3)C2)CC1` (stereo not shown) [Example 51, (9-(4-isobutylpiperazin-1-yl)-6-oxaspiro[4.5]decan-9-yl)(pyridin-2-yl)methanone], the Ki (μ and σ1 dual binding) was under 0.5 µM. For `CC1(C)CC(C(O)c2ccccn2)(N2CCN(Cc3ccccc3)CC2)CCO1` (stereo not shown) [Example 129, (4-(4-benzylpiperazin-1-yl)-2,2-dimethyltetrahydro-2H-pyran-4-yl)(pyridin-2-yl)methanol], the “μ and σ1 dual binding” value is reported as “++”. As to `CC(C)OCCN1CCN([C@]2(C(=O)c3ccccn3)CCOC(C)(C)C2)CC1` [Example 139, (R)-(4-(4-(2-isopropoxyethyl)piperazin-1-yl)-2,2-dimethyltetrahydro-2H-pyran-4-yl)(pyridin-2-yl)methanone], the Ki under setting [1] is over 0.5 µM. Where the note is “μ and σ1 dual binding”, `CN(Cc1ccccc1)[C@H]1CCN([C@@]2(C(=O)c3ccccn3)CCOC(C)(C)C2)C1` [Example 140, ((S)-4-((S)-3-(benzyl(methyl)amino)pyrrolidin-1-yl)-2,2-dimethyltetrahydro-2H-pyran-4-yl)(pyridin-2-yl)methanone] gave a Ki of under 0.5 µM. As to `N#Cc1ccc(CN2CCN(C3(C(=O)c4ccccn4)CCOCC3)CC2)cc1F` [Example 192, 2-fluoro-4-((4-(4-picolinoyltetrahydro-2-pyran-4-yl)piperazin-1-yl)methyl)benzonitrile], the Ki under setting [1] was over 0.5 µM. For the compound `CCC1(N2CCN(Cc3ccccc3)CC2)CCOC(C)(C)C1` (stereo not shown) [Example 38, 1-benzyl-4-(4-ethyl-2,2-dimethyltetrahydro-2H-pyran-4-yl)piperazine], the “μ and σ1 dual binding” value was “++”.

On to `O=C(c1ccccn1)C1(C2CCN(Cc3ccccc3)CC2)CCOCC1` [Example 21, (4-(1-benzylpiperidin-4-yl)tetrahydro-2H-pyran-4-yl)(pyridin-2-yl)methanone], for which the “μ and σ1 dual binding” value is “++”. As for `COc1cc(CN2CCN(C3(C(=O)c4ccccn4)CCOCC3)CC2)ccc1F` [Example 198, (4-(4-(4-fluoro-3-methoxybenzyl)piperazin-1-yl)tetrahydro-2H-pyran-4-yl)(pyridin-2-yl)methanone], the Ki under setting [1] was over 0.5 µM.

On to `CN(Cc1ccccc1)[C@H]1CCN(C2(C(=O)c3ccccn3)CCOC(C)(C)C2)C1` (stereo partly drawn) [Example 138, (4-((S)-3-(benzyl(methyl)amino)pyrrolidin-1-yl)-2,2-dimethyltetrahydro-2H-pyran-4-yl)(pyridin-2-yl)methanone], for which the Ki (μ and σ1 dual binding) is over 0.5 µM.

With `CC(C)OCCN1CCN([C@@]2(C(=O)c3ccccn3)CCOC(C)(C)C2)CC1` [Example 134, (S)-(4-(4-(2-isopropoxyethyl)piperazin-1-yl)-2,2-dimethyltetrahydro-2H-pyran-4-yl)(pyridin-2-yl)methanone], the “μ and σ1 dual binding” value is given as “++”. In turn, `CC(C)CCN1CCCN(C2(C(=O)c3ccccn3)CCOC(C)(C)C2)CC1` (stereo not shown) [Example 86, (4-(4-isopentyl-1,4-diazepan-1-yl)-2,2-dimethyltetrahydro-2H-pyran-4-yl)(pyridin-2-yl)methanone] registered a Ki (μ and σ1 dual binding) of under 0.1 µM. Turning to `CC(C)CCN1CCN([C@@]2(C)CCO[C@@H](C)C2)CC1` [Example 161, 1-((2S,4S)-2,4-dimethyltetrahydro-2H-pyran-4-yl)-4-isopentylpiperazine], the “μ and σ1 dual binding” value is listed as “++”. Take `CC[C@]1(N2CCN(CCOC(C)C)CC2)CCO[C@@H](C)C1` [Example 157, 1-((2S,4S)-4-ethyl-2-methyltetrahydro-2H-pyran-4-yl)-4-(2-isopropoxyethyl)piperazine]: the Ki (μ and σ1 dual binding) is under 0.1 µM. The same measure, in the same setting: the result for `CCCC1(N2CCN(CCc3ccccc3)CC2)CCOC(C)(C)C1` (stereo not shown) [Example 41, 1-(2,2-dimethyl-4-propyltetrahydro-2H-pyran-4-yl)-4-phenethylpiperazine] reads under 0.5 µM. As for `CC(c1ccc(F)cc1)N1CCN(C2(C(=O)c3ccccn3)CCOC(C)(C)C2)CC1` (stereo not shown) [Example 63, (4-(4-(1-(4-fluorophenyl)ethyl)piperazin-1-yl)-2,2-dimethyltetrahydro-2H-pyran-4-yl)(pyridin-2-yl)methanone], the “μ and σ1 dual binding” value is reported as “++”. Take `CN(Cc1ccccc1)C1CN(C2(C(=O)c3ccccn3)CCOC(C)(C)C2)C1` (stereo not shown) [Example 19, (4-(3-(benzyl(methyl)amino)azetidin-1-yl)-2,2-dimethyltetrahydro-2H-pyran-4-yl)(pyridin-2-yl)methanone]: the “μ and σ1 dual binding” value is recorded as “++”. As for `CC(C)OCCN1CCN(C2(C(=O)c3cccc(C(F)(F)F)n3)CCOC(C)(C)C2)CC1` (stereo not shown) [Example 16, (4-(4-(2-isopropoxyethyl)piperazin-1-yl)-2,2-dimethyltetrahydro-2H-pyran-4-yl)(6-(trifluoromethyl)pyridin-2-yl)methanone], the Ki (μ and σ1 dual binding) is under 0.5 µM. For the compound `C[C@@H]1C[C@@](C(=O)c2ccccn2)(N2CCN(Cc3ccccc3)CC2)CCO1` [Example 25], the Ki under setting [1] was over 0.5 µM. In turn, `CC(C)OCCN1CCC(C2(c3ccccn3)CCOC(C)(C)C2)CC1` (stereo not shown) [Example 75, 2-(4-(1-(2-isopropoxyethyl)piperidin-4-yl)-2,2-dimethyltetrahydro-2H-pyran-4-yl)pyridine] had a Ki (μ and σ1 dual binding) of over 0.5 µM.
